In patent publication US8987321B2, “Lisofylline analogs and methods for use” (University of Virginia Patent Foundation, priority 2005, dated 2015):

Key:
[1] = cited from earlier work
β-cells = conditions: maintains insulin secretory capability and cell viability; cited from earlier work
INS-1 cells [2] = experiment: Protection of INS-1 cells from cytokine-induced cell death; type: cell-based, rat; conditions: IL-1β + IFNγ + TNFα, 18 hours
Procedure: The effects of LSF analogs on β-cells in the […] insulin-secreting INS-1 cell line were investigated. Cells were maintained in RPMI 1640 medium (Life Technologies, Inc., Gaithersburg, Md.) supplemented with 10% heat-inactivated FBS, 10 mm HEPES, 200 μm L-glutamine, 1 mm sodium pyruvate, […] 2-mercaptoethanol, 50 U/ml penicillin, and 50 μg/ml streptomycin at pH 7.4. The cells were cultured at 37° C. in a humidified incubator supplied with 5% carbon dioxide. Fresh medium was replaced every 2 days. The cells were plated at a density of […]. Culture vessels were coated with poly-D-lysine and gelatin (Sigma, St. Louis, Mo.) to retain detached and dead cells so that seeding cell numbers reflect the actual cell numbers after all treatment conditions. INS-1 cells were treated with the combination of recombinant mouse IL-1β (5 ng/ml), IFNγ (100 ng/ml), and TNFα (10 ng/ml; R&D Systems, Inc., Minneapolis, Minn.) suspended in complete RPMI medium. LSF (provided by Cell Therapeutics, Inc., Seattle, Wash.) and analogs were added simultaneously with the cytokines in complete RPMI medium. All treatments were performed for 18 hours.
INS-1 cells were treated with a combination of recombinant IL-1β, INFγ, and TNFα with 10^−5-10^3 μM LSF and its analogs. […] There was no further increase in β-cell protection when the LSF concentration was increased from 10^−2 to 10^2 μM. […] No further increases in β-cell protection were observed when analog concentrations were increased.
The effects of LSF analogs on insulin secretion in INS-1 cells with and without inflammatory cytokines. β-Cells were treated with apoptosis detecting dye for 2-3 hours at room temperature. Apoptotic cells were recognized with purple-red color under a microscope. After washing to eliminate free dye and adding dye release reagent, color density was quantified by reading at OD 450 nm. […] Insulin secreted into the supernatant was measured by RIA with mouse insulin as a standard. […]

INS-1 cells [3] = experiment: Insulin secretion in INS-1 cells; type: cell-based, rat; conditions: 20 μM
Procedure: The effects of LSF analogs on insulin secretion in INS-1 cells with and without inflammatory cytokines. β-Cells were treated with apoptosis detecting dye for 2-3 hours at room temperature. Apoptotic cells were recognized with purple-red color under a microscope. After washing to eliminate free dye and adding dye release reagent, color density was quantified by reading at OD 450 nm. At the end of treatment, cells were washed with Krebs-Ringer-bicarbonate-HEPES buffer (KRB) containing 134 mm NaCl, 4.7 mm KCl, 1.2 mm KH2PO4, 1.2 mm MgSO4, 1.0 mm CaCl2, 10 mm HEPES, and 0.1% BSA at 37° C., pH 7.4. The cells were preincubated in the same buffer for 30 min, followed by 60-min incubation in KRB supplemented with 15 mM D-glucose (J. T. Baker, Phillipsburg, N.J.). The supernatant was harvested and subjected to centrifugation to eliminate residue cells. Insulin secreted into the supernatant was measured by RIA with mouse insulin as a standard. The cells are maintained in basal (3 mM) and glucose-stimulated (28 mM). […] Insulin secretion in INS-1 cells: (a) LSF, (b) compound CPW11, and (c) compound CPW12. […]

[4] = test system: non-obese diabetic (NOD) mouse; conditions: cited from earlier work
rCYP 2C19 = rCYP 2C19 (Homo sapiens, UniProt P33261); experiment: rCYP450 inhibition, 2C19; type: in vitro ADME; parameters: concentration or dose not given beside the values
Chain of rCYP 2C19 (P33261 whole entry): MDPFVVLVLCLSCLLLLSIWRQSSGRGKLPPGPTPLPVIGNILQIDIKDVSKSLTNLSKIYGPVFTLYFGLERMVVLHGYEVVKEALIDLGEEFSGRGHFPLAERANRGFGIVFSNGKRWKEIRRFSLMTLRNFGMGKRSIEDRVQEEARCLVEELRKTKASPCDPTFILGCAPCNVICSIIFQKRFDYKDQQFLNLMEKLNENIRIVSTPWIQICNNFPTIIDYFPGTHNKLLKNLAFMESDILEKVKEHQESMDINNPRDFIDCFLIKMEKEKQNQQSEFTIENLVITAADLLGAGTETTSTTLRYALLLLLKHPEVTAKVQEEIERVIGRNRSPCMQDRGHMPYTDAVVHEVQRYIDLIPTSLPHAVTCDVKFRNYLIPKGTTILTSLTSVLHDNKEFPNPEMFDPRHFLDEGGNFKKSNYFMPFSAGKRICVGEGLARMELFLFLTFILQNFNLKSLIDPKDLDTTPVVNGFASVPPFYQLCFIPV
Procedure: (§1) Further evaluations were performed for some of the LSF analogs in MDS assays, solubility, oral bioavailability, and stability (see Table 1). Analogs having greater than 50% inhibitory activity were considered to have high activity; analogs having from 20-49% inhibitory activity were considered to have medium activity; and analogs having less than 20 inhibitory activity were considered to have low activity

rCYP 3A4 = rCYP 3A4 (Homo sapiens, UniProt P08684); experiment: rCYP450 inhibition, 3A4; type: in vitro ADME; parameters: concentration or dose not given beside the values
Chain of rCYP 3A4 (P08684 whole entry): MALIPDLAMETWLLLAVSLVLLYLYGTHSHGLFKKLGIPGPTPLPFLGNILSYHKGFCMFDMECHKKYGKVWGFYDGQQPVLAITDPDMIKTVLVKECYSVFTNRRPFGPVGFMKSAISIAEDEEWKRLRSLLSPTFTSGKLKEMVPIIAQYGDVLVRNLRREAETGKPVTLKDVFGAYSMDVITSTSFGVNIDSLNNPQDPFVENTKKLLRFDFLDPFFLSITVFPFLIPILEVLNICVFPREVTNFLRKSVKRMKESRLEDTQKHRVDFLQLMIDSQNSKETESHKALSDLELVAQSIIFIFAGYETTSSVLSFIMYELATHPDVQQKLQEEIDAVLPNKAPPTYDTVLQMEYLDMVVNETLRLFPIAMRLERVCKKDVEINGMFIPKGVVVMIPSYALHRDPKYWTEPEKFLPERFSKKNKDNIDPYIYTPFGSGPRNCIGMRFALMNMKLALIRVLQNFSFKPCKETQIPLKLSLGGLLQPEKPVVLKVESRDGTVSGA
Procedure: as §1

rCYP 1A2 = molecular target: T1, rCYP 1A2 (Homo sapiens, UniProt P05177); experiment: rCYP450 inhibition, 1A2; type: in vitro ADME; parameters: concentration or dose not given beside the values
T1 sequence (P05177 1-516): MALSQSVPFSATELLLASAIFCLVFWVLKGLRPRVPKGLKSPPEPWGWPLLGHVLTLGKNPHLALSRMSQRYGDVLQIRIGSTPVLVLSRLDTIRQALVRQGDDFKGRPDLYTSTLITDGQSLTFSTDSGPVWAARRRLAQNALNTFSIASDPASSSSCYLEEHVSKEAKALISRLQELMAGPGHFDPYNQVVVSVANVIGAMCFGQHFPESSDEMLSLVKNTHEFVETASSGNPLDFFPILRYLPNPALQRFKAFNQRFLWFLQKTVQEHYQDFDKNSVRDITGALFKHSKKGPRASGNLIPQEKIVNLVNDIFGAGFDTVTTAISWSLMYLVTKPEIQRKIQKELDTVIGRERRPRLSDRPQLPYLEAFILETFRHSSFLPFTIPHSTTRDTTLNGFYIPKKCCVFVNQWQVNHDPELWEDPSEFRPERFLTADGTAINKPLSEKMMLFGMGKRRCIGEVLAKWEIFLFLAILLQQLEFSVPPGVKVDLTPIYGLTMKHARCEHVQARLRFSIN
Procedure: as §1

rCYP 2D6 = rCYP 2D6 (Homo sapiens, UniProt P10635); experiment: rCYP450 inhibition, 2D6; type: in vitro ADME; parameters: concentration or dose not given beside the values
Chain of rCYP 2D6 (P10635 whole entry): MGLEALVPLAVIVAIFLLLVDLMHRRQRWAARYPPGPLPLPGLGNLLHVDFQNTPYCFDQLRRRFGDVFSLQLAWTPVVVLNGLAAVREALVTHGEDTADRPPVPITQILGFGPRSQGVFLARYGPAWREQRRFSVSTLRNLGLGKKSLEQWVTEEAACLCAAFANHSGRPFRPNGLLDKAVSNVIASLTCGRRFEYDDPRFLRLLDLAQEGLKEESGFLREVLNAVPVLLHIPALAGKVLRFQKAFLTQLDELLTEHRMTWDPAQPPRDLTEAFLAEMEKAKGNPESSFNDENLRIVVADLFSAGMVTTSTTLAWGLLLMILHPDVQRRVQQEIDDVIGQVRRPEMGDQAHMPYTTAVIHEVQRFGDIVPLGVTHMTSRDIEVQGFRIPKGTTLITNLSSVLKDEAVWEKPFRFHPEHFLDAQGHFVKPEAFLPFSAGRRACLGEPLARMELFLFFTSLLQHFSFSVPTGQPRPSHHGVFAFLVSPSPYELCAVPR
Procedure: as §1

rCYP 2C9 = rCYP 2C9 (Homo sapiens, UniProt P11712); experiment: rCYP450 inhibition, 2C9; type: in vitro ADME; parameters: concentration or dose not given beside the values
Chain of rCYP 2C9 (P11712 whole entry): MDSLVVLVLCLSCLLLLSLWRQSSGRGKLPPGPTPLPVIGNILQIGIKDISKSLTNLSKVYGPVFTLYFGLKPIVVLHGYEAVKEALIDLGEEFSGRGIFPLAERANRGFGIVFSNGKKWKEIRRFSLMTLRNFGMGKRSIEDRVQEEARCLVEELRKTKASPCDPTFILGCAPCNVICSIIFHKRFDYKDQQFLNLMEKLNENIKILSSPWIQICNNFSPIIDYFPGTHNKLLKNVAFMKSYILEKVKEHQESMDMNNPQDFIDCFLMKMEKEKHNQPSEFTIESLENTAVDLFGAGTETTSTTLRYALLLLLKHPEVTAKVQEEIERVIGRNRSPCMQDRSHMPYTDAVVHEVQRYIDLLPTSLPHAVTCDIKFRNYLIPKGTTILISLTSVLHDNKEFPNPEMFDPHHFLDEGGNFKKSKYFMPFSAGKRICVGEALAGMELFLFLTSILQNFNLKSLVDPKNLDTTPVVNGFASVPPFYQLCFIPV
Procedure: as §1

Metabolic stability = type: in vitro ADME
Procedure: Further evaluations were performed for some of the LSF analogs in MDS assays, solubility, oral bioavailability, and stability (see Table 1).

Compound | oral bioavailability [1] | protection of β-cells from inflammatory cytokine-mediated injuries (β-cells) | concentration of maximum protective effect (INS-1 cells [2]) | insulin release (INS-1 cells [3]) | spontaneous Type 1 diabetes development [4] | rCYP % Inhibition 2C19 (rCYP 2C19) [%] | rCYP % Inhibition 3A4 (rCYP 3A4) [%] | rCYP % Inhibition 1A2 (rCYP 1A2) [%] | rCYP % Inhibition 2D6 (rCYP 2D6) [%] | rCYP % Inhibition 2C9 (rCYP 2C9) [%] | Metabolic Stability Percent Remaining (Metabolic stability) [%]
C[C@@H](O)CCCCn1c(=O)c2c(ncn2C)n(C)c1=O [LSF, 1-(5-R-hydroxyhexyl)-3,7-dimethylxanthine] | not orally bioavailable | able to protect β-cells | 10^−2 μM | Insulin release was observed | significantly reduce | – | – | – | – | – | –
CC(=O)O[C@H](C)CCCCn1ccc2cc(Br)ccc21 [CPW1] | – | – | – | – | – | 99 | 57 | 58 | 80 | 86 | 0
C[C@@H](O)CCCCN1c2ccccc2Oc2ccccc21 [CPW20] | – | – | – | – | – | 98 | 50 | 95 | 73 | 86 | 19
C[C@@H]([O-])CCCCN1C(=O)COc2ccccc21.[Na+] [CPW7] | – | – | – | – | – | 12 | 12 | 12 | 8 | 5 | –
C[C@@H](O)CCCCOc1nn(CCCC[C@@H](C)O)c(=O)c2ccccc12 [CPW13] | – | – | – | – | – | 89 | −159 | 25 | −28 | 92 | 38
C[C@@H](O)CCCCn1ccc2cc(Br)ccc21 [CPW4] | – | – | – | – | – | 94 | 32 | 56 | 50 | 38 | 0
C[C@@H](O)CCCCn1[nH]c(=O)n(-c2ccccc2)c1=O [CPW9] | – | – | – | – | – | 1 | −4 | 5 | 2 | −12 | 106
CC(=O)O[C@H](C)CCCCn1[nH]c(=O)n(-c2ccccc2)c1=O [CPW8] | – | – | – | – | – | 24 | 12 | 7 | 10 | 5 | 45
CC(O)CCCCN1C(=O)C(C)N(CCCCC(C)O)C(=O)C1C (mixture of isomers) [CPW6] | – | – | – | – | – | 14 | 14 | 13 | 16 | 3 | 77
